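Interpolation was linear, between the two tested concentrations surrounding the appropriate level; five concentrations were tested over 48 hours in 96-well plates. GI50: concentration for 50% inhibition of growth.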 Calls of active or inactive are those of the source. No stated cut-off is given here; in the data, active = GI50 up to about 1.1 µM and inactive = higher.
Tests used:
Assay in all cases: NCI anticancer screen, dose series, 48 h
[1] = tested on: SK-OV-3
[2] = tested on: HCC 2998
[3] = tested on: SNB-75
[4] = tested on: UACC-257
[5] = tested on: SNB-78
[6] = tested on: A549
[7] = tested on: HOP-92
[8] = tested on: HCT-15
[9] = tested on: DMS-273
[10] = tested on: K562
[11] = tested on: HL-60
[12] = tested on: OVCAR-5
[13] = tested on: SF-539
[14] = tested on: IGROV-1
[15] = tested on: OVCAR-3
[16] = tested on: HCT-116
[17] = tested on: KM-20L2
[18] = tested on: NCI-H460
[19] = tested on: CAKI-1
[20] = tested on: SK-MEL-5
[21] = tested on: HOP-62
[22] = tested on: U-251
[23] = tested on: ACHN
[24] = tested on: TK-10
[25] = tested on: XF498
[26] = tested on: CCRF-CEM
[27] = tested on: SF-268
[28] = tested on: SK-MEL-2
[29] = tested on: DMS-114
[30] = tested on: MOLT-4
[31] = tested on: SR
[32] = tested on: DLD-1
[33] = tested on: LXFL 529
[34] = tested on: NCI-H522
[35] = tested on: SN12C
[36] = tested on: UO-31
[37] = tested on: RPMI-8226
[38] = tested on: OVCAR-8
[39] = tested on: KM12
[40] = tested on: SNB-19
[41] = tested on: SF-295
[42] = tested on: NCI-H23
[43] = tested on: OVCAR-4
[44] = tested on: Malme-3M
[45] = tested on: HT-29
[46] = tested on: M14
[47] = tested on: COLO 205
[48] = tested on: RXF 393
[49] = tested on: EKVX
[50] = tested on: A498
[51] = tested on: NCI-H226
[52] = tested on: SW-620
[53] = tested on: SK-MEL-28
[54] = tested on: UACC-62
[55] = tested on: NCI/ADR-RES
[56] = tested on: BT-549
[57] = tested on: MDA-MB-435
[58] = tested on: DU-145
[59] = tested on: M19-MEL
[60] = tested on: MDA-N
[61] = tested on: 786-0
[62] = tested on: PC-3
[63] = tested on: MDA-MB-231
[64] = tested on: MCF7
[65] = tested on: Hs-578T
[66] = tested on: T47D

`CO/C(=N\N=C\c1ccc(Cl)cc1)c1ccncc1` was tested, and the GI50 [1] was > 100 µM (inactive), the GI50 [2] was > 100 µM (inactive) and the GI50 [3] was 63 µM (inactive). The GI50 [4] was > 100 µM (inactive), the GI50 [5] was > 100 µM (inactive) and the GI50 [6] was > 100 µM (inactive). The GI50 [7] was > 100 µM (inactive), the GI50 [8] was over 100 µM and the GI50 [9] was > 100 µM (inactive). For the same compound, the GI50 [10] was > 100 µM (inactive), the GI50 [11] was > 100 µM (inactive) and the GI50 [12] was > 100 µM (inactive). For the same compound, the GI50 [13] was > 100 µM (inactive), the GI50 [14] was > 100 µM (inactive) and the GI50 [15] was > 100 µM (inactive). The GI50 [16] was > 100 µM (inactive), the GI50 [17] was > 100 µM (inactive) and the GI50 [18] was > 100 µM (inactive). For the same compound, the GI50 [19] was > 100 µM (inactive), the GI50 [20] was > 100 µM (inactive) and the GI50 [21] was > 100 µM (inactive). For the same compound, the GI50 [22] was > 100 µM (inactive), the GI50 [23] was > 100 µM (inactive) and the GI50 [24] was > 100 µM (inactive). The GI50 [25] was > 100 µM (inactive), the GI50 [26] was > 100 µM (inactive) and the GI50 [27] was > 100 µM (inactive). The GI50 [28] was > 100 µM (inactive), the GI50 [29] was > 100 µM (inactive) and the GI50 [30] was > 100 µM (inactive). For the same compound, the GI50 [31] was > 100 µM (inactive), the GI50 [32] was > 100 µM (inactive) and the GI50 [33] was > 100 µM (inactive). For the same compound, the GI50 [34] was > 100 µM (inactive), the GI50 [35] was > 100 µM (inactive) and the GI50 [36] was > 100 µM (inactive). The GI50 [37] was > 100 µM (inactive), the GI50 [38] was > 100 µM (inactive) and the GI50 [39] was > 100 µM (inactive). For the same compound, the GI50 [40] was > 100 µM (inactive), the GI50 [41] was > 100 µM (inactive) and the GI50 [42] was > 100 µM (inactive). The GI50 [43] was > 100 µM (inactive), the GI50 [44] was > 100 µM (inactive) and the GI50 [45] was > 100 µM (inactive). For the same compound, the GI50 [46] was > 100 µM (inactive), the GI50 [47] was > 100 µM (inactive) and the GI50 [48] was > 100 µM (inactive). For the same compound, the GI50 [49] was > 100 µM (inactive), the GI50 [50] was > 100 µM (inactive) and the GI50 [51] was 59.7 µM (inactive). The GI50 [52] was > 100 µM (inactive), the GI50 [53] was > 100 µM (inactive) and the GI50 [54] was > 100 µM (inactive).
For `Cc1nc2ccccc2c(=O)n1NC(=S)Nc1ccc(Cl)cc1[N+](=O)[O-]`, the GI50 [55] was > 100 µM (inactive), the GI50 [1] was > 100 µM (inactive) and the GI50 [3] was > 78.3 µM (inactive). The GI50 [4] was > 100 µM (inactive), the GI50 [6] was > 100 µM (inactive) and the GI50 [7] was > 100 µM (inactive). For the same compound, the GI50 [8] was over 100 µM, the GI50 [56] was > 100 µM (inactive) and the GI50 [10] was > 100 µM (inactive). The GI50 [11] was > 100 µM (inactive), the GI50 [13] was > 100 µM (inactive) and the GI50 [14] was > 100 µM (inactive). The GI50 [15] was > 100 µM (inactive), the GI50 [57] was > 100 µM (inactive) and the GI50 [16] was > 100 µM (inactive). The GI50 [17] was > 100 µM (inactive), the GI50 [18] was > 100 µM (inactive) and the GI50 [19] was > 100 µM (inactive). For the same compound, the GI50 [58] was > 100 µM (inactive), the GI50 [20] was > 100 µM (inactive) and the GI50 [21] was > 100 µM (inactive). The GI50 [22] was > 100 µM (inactive), the GI50 [23] was > 100 µM (inactive) and the GI50 [24] was > 100 µM (inactive). The GI50 [59] was > 100 µM (inactive), the GI50 [60] was > 100 µM (inactive) and the GI50 [26] was > 100 µM (inactive). The GI50 [27] was > 100 µM (inactive), the GI50 [61] was > 100 µM (inactive) and the GI50 [28] was > 100 µM (inactive). For the same compound, the GI50 [29] was > 100 µM (inactive), the GI50 [30] was > 100 µM (inactive) and the GI50 [31] was > 100 µM (inactive). The GI50 [33] was > 100 µM (inactive), the GI50 [34] was > 100 µM (inactive) and the GI50 [35] was > 100 µM (inactive). For the same compound, the GI50 [36] was > 55.5 µM (inactive), the GI50 [37] was > 100 µM (inactive) and the GI50 [38] was > 100 µM (inactive). For the same compound, the GI50 [39] was > 100 µM (inactive), the GI50 [40] was > 72.8 µM (inactive) and the GI50 [41] was > 100 µM (inactive). For the same compound, the GI50 [42] was > 100 µM (inactive), the GI50 [43] was > 100 µM (inactive) and the GI50 [44] was > 100 µM (inactive). For the same compound, the GI50 [45] was > 100 µM (inactive), the GI50 [62] was > 100 µM (inactive) and the GI50 [63] was > 100 µM (inactive). For the same compound, the GI50 [46] was > 100 µM (inactive), the GI50 [64] was > 100 µM (inactive) and the GI50 [47] was > 100 µM (inactive). For the same compound, the GI50 [48] was > 100 µM (inactive), the GI50 [49] was 36.2 µM (inactive) and the GI50 [50] was > 100 µM (inactive). The GI50 [51] was > 10 µM (inactive), the GI50 [65] was > 100 µM (inactive) and the GI50 [52] was > 100 µM (inactive). For the same compound, the GI50 [66] was > 100 µM (inactive), the GI50 [53] was > 100 µM (inactive) and the GI50 [54] was > 100 µM (inactive).

Source: ChEMBL document CHEMBL1201862, “PubChem BioAssay data set” (2004)
